Laboratory results reported in patent US10738057B2, “Tertiary alcohols as PI3K-γ inhibitors” (Incyte Corporation, priority 2017, dated 2020).
Where a name gives a salt, the structure may show the parent alone. Read-outs that look alike come from different tables or passages of the source.

What was measured:
[1] = target: PI3Kγ (p110γ) Recombinant Human Protein (Homo sapiens (Human), UniProt P48736); experiment: PI3K-γ scintillation proximity assay; type: biochemical; conditions: 20 μM PIP2, 2 μM ATP, 13 nM PI3Kγ, 120 min, room temperature
PI3Kγ (p110γ) Recombinant Human Protein, sequence (P48736 whole entry): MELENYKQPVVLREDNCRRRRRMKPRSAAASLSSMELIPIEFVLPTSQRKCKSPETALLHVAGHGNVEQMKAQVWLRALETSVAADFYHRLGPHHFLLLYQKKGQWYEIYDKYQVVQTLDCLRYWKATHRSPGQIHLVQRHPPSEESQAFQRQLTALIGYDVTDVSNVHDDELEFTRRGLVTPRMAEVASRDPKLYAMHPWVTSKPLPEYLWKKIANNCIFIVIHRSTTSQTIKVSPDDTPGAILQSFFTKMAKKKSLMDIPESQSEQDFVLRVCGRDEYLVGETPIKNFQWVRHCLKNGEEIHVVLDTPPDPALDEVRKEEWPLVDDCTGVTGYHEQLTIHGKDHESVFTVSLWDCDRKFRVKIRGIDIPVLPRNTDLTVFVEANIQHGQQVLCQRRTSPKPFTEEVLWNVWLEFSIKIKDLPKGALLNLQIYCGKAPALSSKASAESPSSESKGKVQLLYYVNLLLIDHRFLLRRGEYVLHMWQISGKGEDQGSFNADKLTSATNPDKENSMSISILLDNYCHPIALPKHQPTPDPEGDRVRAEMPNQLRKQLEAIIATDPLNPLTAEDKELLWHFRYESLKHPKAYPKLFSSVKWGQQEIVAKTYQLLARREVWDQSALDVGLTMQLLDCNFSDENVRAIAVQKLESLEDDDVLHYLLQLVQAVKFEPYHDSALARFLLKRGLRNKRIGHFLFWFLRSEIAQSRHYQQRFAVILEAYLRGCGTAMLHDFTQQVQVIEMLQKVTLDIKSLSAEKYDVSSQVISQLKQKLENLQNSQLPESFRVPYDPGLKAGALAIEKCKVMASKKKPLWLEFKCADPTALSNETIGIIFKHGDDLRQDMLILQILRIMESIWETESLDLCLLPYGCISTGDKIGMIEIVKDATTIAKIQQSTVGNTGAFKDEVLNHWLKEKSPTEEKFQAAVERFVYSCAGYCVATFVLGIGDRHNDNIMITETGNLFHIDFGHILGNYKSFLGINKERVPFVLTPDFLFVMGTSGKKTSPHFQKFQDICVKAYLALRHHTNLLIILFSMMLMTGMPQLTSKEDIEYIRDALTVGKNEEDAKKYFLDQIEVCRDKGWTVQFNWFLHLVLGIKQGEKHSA
Source text: Example B. PI3K-γ Scintillation Proximity Assay
[γ-^33P]ATP (10 mCi/mL) and Wheat Germ Agglutinin (WGA) YSi SPA Scintillation Beads was purchased from PerkinElmer (Waltham, Mass.). Lipid kinase substrate, D-myo-Phosphatidylinositol 4,5-bisphosphate (PtdIns(4,5)P2)D (+)-sn-1,2-di-O-octanoylglyceryl, 3-O-phospho linked (PIP2), CAS 204858-53-7, was purchased from Echelon Biosciences (Salt Lake City, Utah). PI3Kγ (p110γ) Recombinant Human Protein was purchased from Life technology (Grand Island, N.Y.). ATP, MgCl2, DTT, EDTA, MOPS and CHAPS were purchased from SigmaAldrich (St. Louis, Mo.).
(§1) The kinase reaction was conducted in polystyrene 384-well Greiner Bio-one white plate from Thermo Fisher Scientific in a final volume of 25 μL. Inhibitors were first diluted serially in DMSO and added to the plate wells before the addition of other reaction components. The final concentration of DMSO in the assay was 2%. The PI3Kγ assay was carried out at room temperature in 20 mM MOPS, pH 6.7, 10 mM MgCl2, 5 mM DTT and CHAPS 0.03%. Reactions were initiated by the addition of ATP, the final reaction mixture consisted of 20 μM PIP2, 2 μM ATP, 0.5 μCi [γ-^33P] ATP, 13 nM PI3Kγ. Reactions were incubated for 120 min and terminated by the addition of 40 μL SPA beads suspended in quench buffer: 163 mM potassium phosphate pH 7.8, 20% glycerol, 25 mM EDTA. The final concentration of SPA beads is 1.0 mg/mL. After the plate sealing, plates were shaken overnight at room temperature and centrifuged at 1500 rpm for 10 min, the radioactivity of the product was determined by scintillation counting on Topcount (Perkin-Elmer). IC50 determination was performed by fitting the curve of percent of the solvent control activity versus the log of the inhibitor concentration using the GraphPad Prism 6.0 software.

[2] = target: PI3Kδ (p110δ/p85α) Recombinant Human Protein (Homo sapiens (Human), UniProt O00329); experiment: PI3Kδ scintillation proximity assay; type: biochemical; conditions: 20 μM PIP2, 2 μM ATP, 3.4 nM PI3Kδ, 120 min, room temperature; read-out: PI3Kδ IC50
PI3Kδ (p110δ/p85α) Recombinant Human Protein, sequence (O00329 whole entry): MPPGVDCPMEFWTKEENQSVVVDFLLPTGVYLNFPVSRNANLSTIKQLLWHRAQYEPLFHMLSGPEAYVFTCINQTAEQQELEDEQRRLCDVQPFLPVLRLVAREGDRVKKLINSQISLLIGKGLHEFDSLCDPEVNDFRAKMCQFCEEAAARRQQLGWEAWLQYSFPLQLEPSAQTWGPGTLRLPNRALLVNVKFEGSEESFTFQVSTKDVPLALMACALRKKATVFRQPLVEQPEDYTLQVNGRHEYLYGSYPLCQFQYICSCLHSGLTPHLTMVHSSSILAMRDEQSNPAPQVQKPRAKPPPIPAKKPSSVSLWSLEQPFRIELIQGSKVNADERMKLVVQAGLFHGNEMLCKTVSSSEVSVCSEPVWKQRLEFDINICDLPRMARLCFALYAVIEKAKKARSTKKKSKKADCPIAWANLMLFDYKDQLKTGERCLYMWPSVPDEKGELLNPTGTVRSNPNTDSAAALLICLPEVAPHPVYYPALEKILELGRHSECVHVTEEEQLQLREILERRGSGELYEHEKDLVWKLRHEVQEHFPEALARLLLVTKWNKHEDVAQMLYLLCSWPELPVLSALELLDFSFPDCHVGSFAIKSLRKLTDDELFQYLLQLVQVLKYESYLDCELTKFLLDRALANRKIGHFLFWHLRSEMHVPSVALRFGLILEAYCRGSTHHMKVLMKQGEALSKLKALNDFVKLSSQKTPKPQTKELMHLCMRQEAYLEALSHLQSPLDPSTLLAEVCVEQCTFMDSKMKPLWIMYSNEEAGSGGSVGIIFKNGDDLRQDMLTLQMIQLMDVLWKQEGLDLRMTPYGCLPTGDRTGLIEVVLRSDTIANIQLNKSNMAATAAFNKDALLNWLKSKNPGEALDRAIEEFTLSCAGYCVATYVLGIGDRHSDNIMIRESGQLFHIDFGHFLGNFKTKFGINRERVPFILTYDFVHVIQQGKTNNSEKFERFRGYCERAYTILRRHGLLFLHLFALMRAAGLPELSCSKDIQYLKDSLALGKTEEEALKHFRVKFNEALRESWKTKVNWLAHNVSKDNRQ
PI3Kδ (p110δ/p85α) Recombinant Human Protein, sequence (P27986 whole entry partner): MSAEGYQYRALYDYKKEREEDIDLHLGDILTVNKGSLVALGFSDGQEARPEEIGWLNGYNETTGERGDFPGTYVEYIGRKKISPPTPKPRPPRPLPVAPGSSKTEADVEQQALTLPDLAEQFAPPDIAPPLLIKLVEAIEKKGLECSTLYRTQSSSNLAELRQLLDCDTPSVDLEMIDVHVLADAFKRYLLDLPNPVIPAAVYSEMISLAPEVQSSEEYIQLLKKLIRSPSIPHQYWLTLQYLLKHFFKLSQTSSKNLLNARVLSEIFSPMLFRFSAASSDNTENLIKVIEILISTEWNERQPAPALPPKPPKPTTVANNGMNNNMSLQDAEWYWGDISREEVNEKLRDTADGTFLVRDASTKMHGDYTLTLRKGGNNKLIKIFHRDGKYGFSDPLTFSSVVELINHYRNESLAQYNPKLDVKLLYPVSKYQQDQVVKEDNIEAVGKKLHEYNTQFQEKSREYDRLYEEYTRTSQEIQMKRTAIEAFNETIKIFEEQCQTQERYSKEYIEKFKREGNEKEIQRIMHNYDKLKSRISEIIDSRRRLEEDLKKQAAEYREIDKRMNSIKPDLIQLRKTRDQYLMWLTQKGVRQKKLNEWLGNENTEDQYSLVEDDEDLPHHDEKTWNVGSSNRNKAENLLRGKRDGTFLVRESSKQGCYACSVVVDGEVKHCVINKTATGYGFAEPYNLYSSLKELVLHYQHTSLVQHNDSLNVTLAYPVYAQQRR
Description: PI3Kδ Scintillation Proximity Assay
[γ-^33P]ATP (10 mCi/mL) and Wheat Germ Agglutinin (WGA) YSi SPA Scintillation Beads was purchased from PerkinElmer (Waltham, Mass.). […] PI3Kδ (p110δ/p85α) Recombinant Human Protein was purchased from Eurofins (St Charles, Mo.). ATP, MgCl2, DTT, EDTA, MOPS and CHAPS were purchased from SigmaAldrich (St. Louis, Mo.).
as §1, with “PI3Kδ” for “PI3Kγ”, “ATP, 13 nM PI3Kγ. Reactions were incubated for 120 min and terminated by the addition of 40 μL SPA beads suspended in quench buffer: 163 mM potassium phosphate pH 7.8, 20% glycerol, 25 mM EDTA.” left out, “(PerkinElmer).” for “(Perkin-Elmer).”

[3] = system: Phosphorylated Ribosomal Protein S6 (RPS6) in THP-1 cells; experiment: THP-1 RPS6 ELISA assay; type: cell-based, Human; conditions: Homo sapiens
Description: Example A. THP-1 RPS6 ELISA Assay
To measure the Phosphorylated Ribosomal Protein S6 (RPS6) in cell lysates, THP-1 cells (Human Acute Monocytic Leukemia) are purchased from ATCC (Manassas, Va.) and maintained in RPMI with 10% FBS (Gibco/Life Technologies, Carlsbad, Calif.). For the assay, THP-1 cells are serum starved overnight in RPMI, then plated in RPMI (2×10^5 cells/well in 90 μL) into 96-well flat-bottom tissue culture treated plates (Corning, Corning, N.Y.), in the presence or absence of a concentration range of test compounds. Covered plates are incubated for 2 hours at 37° C., 5% CO2 then treated with or without 10 nM MCP-1 (MYBioSource, San Diego, Calif.) for 15 minutes at 37° C., 5% CO2. Plates are centrifuged at 1600 RPM and supernatants are removed. Cells are lysed in Lysis Buffer (Cell Signaling, Danvers, Mass.) with Protease Inhibitor (Calbiochem/EMD, Germany), PMSF (Sigma, St Louis Mo.), HALTS (Thermo Fisher, Rockford, Ill.) for 30 min on wet ice. Cell lysates are frozen at −80° C. before testing. The lysates are tested in the Human/Mouse/Rat Phospho-RPS6 ELISA (R&D Systems, Inc. Minn, Minn.). The plate is measured using a microplate reader (SpectraMax M5—Molecular Devices, LLC Sunnyvale, Calif.) set to 450 nm with a wavelength correction of 540. IC50 determination is performed by fitting the curve of inhibitor percent inhibition versus the log of the inhibitor concentration using the GraphPad Prism 5.0 software.

[4] = THP-1, THP-1 cells, serum starved, 2 h compound, 10 nM MCP-1 for 15 min, phospho-RPS6 ELISA, read-out: PI3Kγ_THP1_RPS6_ELISA IC50
[5] = THP-1, read-out: PI3Kγ_THP1_RPS6_ELISA IC50 (nM)

Structure (SMILES)	IC50 [1] [nM]	IC50 [2] [nM]	IC50 [3, 4] [nM]	IC50 [3, 5] [nM]
Cc1ccc(C(C)(O)C(F)(F)F)cc1-c1cnc2c(N)nc(-c3ccnc(CO)c3)cn12 (stereo not drawn) [Example 10, 2-(3-(8-Amino-6-(2-(hydroxymethyl)pyridin-4-yl)imidazo[1,2-a]pyrazin-3-yl)-4-methylphenyl)-1,1,1-trifluoropropan-2-ol]	< 100	< 100	100 to 500	
CNC(=O)C(C)(C)C(O)(c1ccc(C)c(-c2cnc3c(N)nc(C(F)(F)F)cn23)c1)C(F)(F)F (stereo not drawn) [Example 262, 3-(3-(8-Amino-6-(trifluoromethyl)imidazo[1,2-a]pyrazin-3-yl)-4-methylphenyl)-4,4,4-trifluoro-3-hydroxy-N,2,2-trimethylbutanamide]	< 100	100 to 500	> 1000	
Cc1ccc(C(O)(C2CC2)C(F)(F)F)cc1-c1cnc2c(N)nc(C(F)(F)F)cn12 (stereo not drawn) [Example 19, 1-(3-(8-Amino-6-(trifluoromethyl)imidazo[1,2-a]pyrazin-3-yl)-4-methylphenyl)-1-cyclopropyl-2,2,2-trifluoroethan-1-ol]	< 100	100 to 500	> 1000	
Cc1ccc(C(C)(O)C(F)(F)F)cc1-c1cnc2c(N)nc(C(=O)N[C@@H](B(O)O)C3CCC3)cn12 (single isomer, unassigned) [Example 117]	< 100	500 to 2000	> 1000	
Cc1ccc(C(C)(O)C(F)F)cc1-c1cnc2c(N)nc(-c3c(C)n[nH]c3C)cn12 (stereo not drawn) [Example 39, 2-(3-(8-Amino-6-(3,5-dimethyl-1H-pyrazol-4-yl)imidazo[1,2-a]pyrazin-3-yl)-4-methylphenyl)-1,1-difluoropropan-2-ol]	< 100	< 100	< 100	
Cc1ccc(C(C)(O)C(F)F)cc1-c1cnc2c(N)nc(-c3ccnn3C)nn12 (single isomer, unassigned) [Example 51, 2-(3-(4-Amino-2-(1-methyl-1H-pyrazol-5-yl)imidazo[2,1-f][1,2,4]triazin-7-yl)-4-methylphenyl)-1,1-difluoropropan-2-ol trifluoroacetate salt]	< 100	< 100	< 100	
Cc1ccc(C(O)(C(N)=O)C(F)(F)F)cc1-c1cnc2c(N)nc(C(=O)NC34CCC(O)(CC3)C4)cn12 (single isomer, unassigned) [Example 260, 8-Amino-3-(5-(3-amino-1,1,1-trifluoro-2-hydroxy-3-oxopropan-2-yl)-2-methylphenyl)-N-(4-hydroxybicyclo[2.2.1]heptan-1-yl)imidazo[1,2-a]pyrazine-6-carboxamide trifluoroacetate salt]			500 to 1000	
Cc1ccc(C(O)(CO)C(F)(F)F)cc1-c1cnc2c(N)nc(-c3cnco3)cn12 (racemic) [Example 71, 2-(3-(8-Amino-6-(oxazol-5-yl)imidazo[1,2-a]pyrazin-3-yl)-4-methylphenyl)-3,3,3-trifluoropropane-1,2-diol trifluoroacetate salt]				< 100
Cc1ccc(C(O)(C(N)=O)C(F)(F)F)cc1-c1cnc2c(N)nc(C(C)(C)O)cn12 (single isomer, unassigned) [Example 255, 2-(3-(8-Amino-6-(2-hydroxypropan-2-yl)imidazo[1,2-a]pyrazin-3-yl)-4-methylphenyl)-3,3,3-trifluoro-2-hydroxypropanamide trifluoroacetate salt]			< 100	
Cc1ccc(C(O)(CO)C(F)(F)F)cc1-c1cnc2c(N)nc(-c3cnn(C)c3)cn12 (racemic) [Example 69, 2-(3-(8-Amino-6-(1-methyl-1H-pyrazol-4-yl)imidazo[1,2-a]pyrazin-3-yl)-4-methylphenyl)-3,3,3-trifluoropropane-1,2-diol trifluoroacetate salt]				< 100
Cc1ccc(C(C)(O)C(F)(F)C(F)(F)F)cc1-c1cnc2c(N)nc(C(F)(F)F)cn12 (single isomer, unassigned) [Example 59, 2-(3-(8-Amino-6-(trifluoromethyl)imidazo[1,2-a]pyrazin-3-yl)-4-methylphenyl)-3,3,4,4,4-pentafluorobutan-2-ol]	< 100	500 to 2000		
[2H]C([2H])([2H])c1ccc(C(O)(C(C)(C)O)C(F)(F)F)cc1-c1cnc2c(N)nc(C(F)(F)F)cn12 (racemic) [Example 235, 2-(3-(8-Amino-6-(trifluoromethyl)imidazo[1,2-a]pyrazin-3-yl)-4-(methyl-d3)phenyl)-1,1,1-trifluoro-3-methylbutane-2,3-diol trifluoroacetate salt]	< 100	100 to 500		
Cc1ccc(C(C)(O)C(F)(F)F)cc1-c1cnc2c(N)nc(C(=O)NC34COC(CO)(C3)C4)cn12 (stereo not drawn) [Example 279, 8-Amino-N-(1-(hydroxymethyl)-2-oxabicyclo[2.1.1]hexan-4-yl)-3-(2-methyl-5-(1,1,1-trifluoro-2-hydroxypropan-2-yl)phenyl)imidazo[1,2-a]pyrazine-6-carboxamide trifluoroacetate salt]	< 100	100 to 500		
[2H]C([2H])([2H])n1nccc1-c1cn2c(-c3cc(C(O)(CO)C(F)(F)F)ccc3C)cnc2c(N)n1 (single isomer, unassigned) [Example 67, 2-(3-(8-Amino-6-(1-(methyl-d3)-1H-pyrazol-5-yl)imidazo[1,2-a]pyrazin-3-yl)-4-methylphenyl)-3,3,3-trifluoropropane-1,2-diol trifluoroacetate salt]	< 100	100 to 500		
Cc1ncc(-c2cn3c(-c4cc(C(O)(CO)C(F)(F)F)ccc4C)cnc3c(N)n2)s1 (racemic) [Example 70, 2-(3-(8-Amino-6-(2-methylthiazol-5-yl)imidazo[1,2-a]pyrazin-3-yl)-4-methylphenyl)-3,3,3-trifluoropropane-1,2-diol trifluoroacetate salt]				< 100
CC(O)(c1cc(-c2cnc3c(N)nc(C(F)(F)F)cn23)c2ccn(S(=O)(=O)c3ccccc3)c2c1)C(F)(F)F (racemic) [Example 224, 2-(4-(8-Amino-6-(trifluoromethyl)imidazo[1,2-a]pyrazin-3-yl)-1-(phenylsulfonyl)-1H-indol-6-yl)-1,1,1-trifluoropropan-2-ol]	100 to 500	500 to 2000		
